Test results as given in publication PMC6508677, “Identification of druggable small molecule antagonists of the Plasmodium falciparum hexose transporter PfHT and assessment of ligand access to the glucose permeation pathway via FLAG-mediated protein engineering” (PLoS ONE, 2019).
“And” between values parts separate entries of the source, which are not always exact repeats. Equal entries are not always repeated. Where two headings read alike, the source gives them in different places.

Biological target: T1, PfHT (Plasmodium falciparum, UniProt Q7KWJ5)
T1 sequence (Q7KWJ5 1-504): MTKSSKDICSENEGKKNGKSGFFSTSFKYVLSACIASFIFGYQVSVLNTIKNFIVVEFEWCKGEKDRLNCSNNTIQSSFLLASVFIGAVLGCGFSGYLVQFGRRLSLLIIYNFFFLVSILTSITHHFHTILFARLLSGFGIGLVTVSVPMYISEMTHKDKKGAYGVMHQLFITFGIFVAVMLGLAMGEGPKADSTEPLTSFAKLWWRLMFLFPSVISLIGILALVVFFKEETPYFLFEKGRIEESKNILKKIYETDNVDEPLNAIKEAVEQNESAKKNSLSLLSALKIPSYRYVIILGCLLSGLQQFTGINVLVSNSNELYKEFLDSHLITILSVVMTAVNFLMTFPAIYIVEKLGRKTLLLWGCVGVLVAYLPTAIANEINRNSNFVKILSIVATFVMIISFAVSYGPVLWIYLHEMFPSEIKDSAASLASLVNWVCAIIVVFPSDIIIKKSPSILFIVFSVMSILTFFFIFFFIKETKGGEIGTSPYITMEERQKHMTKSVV
Assay: 2-DG uptake by HEK293 cells overexpressing PfHT
Type: cell-based
Parameters: expressed in transfected cells; host or cells: HEK293 (HEK293-FLIP, native hGLUT1 knocked down by shRNA)
Details: for Maximum Inhibition (%): 2-DG uptake, PfHT cell line; for remaining activity at 0.001 µM / remaining activity at 0.09375 µM / remaining activity at 0.1875 µM / remaining activity at 0.3125 µM / remaining activity at 0.375 µM / remaining activity at 0.625 µM / remaining activity at 0.75 µM / remaining activity at 1.25 µM / remaining activity at 2.5 µM / remaining activity at 5 µM / remaining activity at 10 µM / remaining activity at 20 µM / remaining activity at 40 µM / remaining activity at 80 µM / remaining activity at 160 µM / remaining activity at 225 µM / inhibition at 5 µM: HEK293, 4 min; for inhibition at 5 µM: read-out: % Inhibition of 2-DG uptake vs vehicle
From the text: Generation of HEK293 cells overexpressing PfHT and human GLUTs 1–4 were described elsewhere. Briefly, HEK293 cells were transfected with pcDNA3.1 FLII12Pglu-7006 (Addgene), containing the fluorescence resonance energy transfer (FRET) glucose sensor (HEK293-FLIP) and PfHT, human GLUT1 (hGLUT1), hGLUT2, hGLUT3, hGLUT4, hGLUT5 or hGLUT8 using Optifect (Life Technologies) according to manufacturer’s specifications. To increase retention of GLUT8 at the plasma membrane, the dileucine sorting signal E^7E^8XXXLL was modified to R^7R^8XXXLL as described in [17]. Stable transfectants were selected for G418 and hygromycin resistance to select for FRET sensor and hexose transporter, respectively. HEK293-FLIP cells were also used to generate cells stably transfected with FLAG-tagged PfHT (FTPfHT). FLAG tag ([…]) followed by a triple glycine linker and a tobacco etch virus (TEV) protease site (ENLYFQS) followed by a triple glycine linker was added to the N-terminus of PfHT via PCR [18] using Phusion Hot Start II High-Fidelity DNA Polymerase (Fisher Scientific). Single clones were selected by comparing their abilities to transport glucose as assayed via FRET and radiolabeled hexose uptake. In all cell lines, except for HEK293 cells overexpressing hGLUT1 and hGLUT5, native hGLUT1 was knocked down using shRNA as described elsewhere. Transcript levels of the individual GLUTs expressed in each cell line are as described in [13, 15] and in S1 Fig.
Glucose uptake by P. falciparum was performed essentially as described. P. falciparum strain 3D7 was cultured in 100 mm tissue culture dishes (Techno Plastic Products) in a 2% suspension of human erythrocytes and RPMI 1640 medium until reaching > 7.5% parasitemia. Cells were pelleted via centrifugation and resuspended in RPMI 1640 medium. To determine the uptake of radiolabeled glucose into the parasite, parasites were isolated from infected erythrocytes by permeablization with saponin (0.05 w/v), followed by centrifugation, aspiration of supernatant and washing of the pellet 3X with saline solution (135 mM NaCl, 2 mM KCl, 25 mM HEPES, 0.2 mM glucose and 1 mM MgCl2; pH 7.1) to remove cellular debris. WU-1 or DMSO vehicle were added to 100 μl parasites (resuspended in saline) 5 min prior to the addition of 100 μl [^14C]2-DOG (0.2- μCi/ml final concentration). 2-DG uptake was stopped after 2 min by layering the entire reaction over 300 μl of an oil mixture (5:4 mix of dibutyl phthalate / dinonyl phthalate) in Eppendorf tubes and centrifuged at 15,850 × g for 2 mins. The ratio of the estimated intracellular concentration of radiolabel relative to the extracellular concentration were calculated as described. Uptake of radiolabeled hexose into HEK293 cells was measured in glucose-free HBSS as described previously. Briefly, cells were plated at 400,000 cells/well overnight at 37°C in 24-well plates pre-treated with PEI. After 30-min incubation at 37°C in glucose-free HBSS in the presence of vehicle or increasing concentrations of compound, 2-DG uptake was measured in glucose-free HBSS for 4 min at 37°C. Cultures were washed in ice-cold 1X PBS and lysed in 0.1% Triton X-100 in 1X PBS. Radiolabeled hexose uptake was determined by liquid scintillation counting (Ultima Gold, Thermo Fisher) and normalized to total protein per well. Uptake data are plotted as percent uptake relative to vehicle-treated cells. Kinetic analyses were performed using the indicated concentrations of substrate and WU-1, with quenching of uptake after 1 min incubation. Incubation times had been previously determined as being in the linear range of time-dependent radiolabeled hexose uptake (2 min for 2-DG uptake into freed parasites; 2 and 4 min for D-Frc and 2-DG uptake HEK cell lines, respectively). Data were fit by least squares nonlinear regression analysis using GraphPad Prism 6.0 software.

[1] = read-out: 2-DG uptake (percent uptake relative to vehicle), AVE, PfHT, 0.001 µM compound
[2] = read-out: 2-DG uptake (percent uptake relative to vehicle), AVE, PfHT, 0.09375 µM compound
[3] = read-out: 2-DG uptake (percent uptake relative to vehicle), AVE, PfHT, 0.1875 µM compound
[4] = read-out: 2-DG uptake (percent uptake relative to vehicle), AVE, PfHT, 0.3125 µM compound (0.313 in Fig 1 sheet for WU-1)
[5] = read-out: 2-DG uptake (percent uptake relative to vehicle), AVE, PfHT, 0.375 µM compound
[6] = read-out: 2-DG uptake (percent uptake relative to vehicle), AVE, PfHT, 0.625 µM compound
[7] = read-out: 2-DG uptake (percent uptake relative to vehicle), AVE, PfHT, 1.25 µM compound
[8] = read-out: 2-DG uptake (percent uptake relative to vehicle), AVE, PfHT, 2.5 µM compound
[9] = read-out: 2-DG uptake (percent uptake relative to vehicle), AVE, PfHT, 5 µM compound
[10] = read-out: 2-DG uptake (percent uptake relative to vehicle), AVE, PfHT, 10 µM compound
[11] = read-out: 2-DG uptake (percent uptake relative to vehicle), AVE, PfHT, 20 µM compound
[12] = read-out: 2-DG uptake (percent uptake relative to vehicle), AVE, PfHT, 40 µM compound
[13] = IC50 for inhibition of 2-DG uptake, HEK293 cells overexpressing PfHT, mean/reported value
[14] = IC50 for inhibition of 2-DG uptake, individual experiments, HEK293 PfHT, Expt 1-3

Cc1ccc(S(=O)(=O)CCNC(=O)c2c(-c3c(Cl)cccc3Cl)noc2C)cc1 [WU-1, 3-(2,6-dichlorophenyl)-5-methyl-N-[2-(4-methylbenzenesulfonyl)ethyl]-1,2-oxazole-4-carboxamide]
Maximum Inhibition (%): 93.2%
remaining activity at 0.001 µM (read-out: 2-DG Uptake AVE, PfHT, concentration 0.001 µM, Expt 1-3): 100%
remaining activity at 0.09375 µM (read-out: 2-DG Uptake AVE, PfHT, concentration 0.09375 µM): 91.6%
remaining activity at 0.1875 µM (read-out: 2-DG Uptake AVE, PfHT, concentration 0.1875 µM): 88.9%
remaining activity at 0.3125 µM (read-out: 2-DG Uptake AVE, PfHT, concentration 0.3125 µM): 90.1%
remaining activity at 0.375 µM (read-out: 2-DG Uptake AVE, PfHT, concentration 0.375 µM): 85.8%
remaining activity at 0.625 µM (read-out: 2-DG Uptake AVE, PfHT, concentration 0.625 µM): 85.2%
remaining activity at 0.75 µM (read-out: 2-DG Uptake AVE, PfHT, concentration 0.75 µM): 76.1%
remaining activity at 1.25 µM (read-out: 2-DG Uptake AVE, PfHT, concentration 1.25 µM): 64.5%
remaining activity at 2.5 µM (read-out: 2-DG Uptake AVE, PfHT, concentration 2.5 µM): 70.2%
remaining activity at 5 µM (read-out: 2-DG Uptake AVE, PfHT, concentration 5 µM): 49.8%
remaining activity at 10 µM (read-out: 2-DG Uptake AVE, PfHT, concentration 10 µM): 34.7%
remaining activity at 20 µM (read-out: 2-DG Uptake AVE, PfHT, concentration 20 µM): 21.1%
remaining activity at 40 µM (read-out: 2-DG Uptake AVE, PfHT, concentration 40 µM): 20.4%
remaining activity at 80 µM (read-out: 2-DG Uptake AVE, PfHT, concentration 80 µM): 8.82%
remaining activity at 160 µM (read-out: 2-DG Uptake AVE, PfHT, concentration 160 µM): 5.63%
remaining activity at 225 µM (read-out: 2-DG Uptake AVE, PfHT, concentration 225 µM): 5.69%
remaining activity at 0.001 µM [1]: 100%
remaining activity at 0.09375 µM [2]: 91.6%
remaining activity at 0.1875 µM [3]: 88.9%
remaining activity at 0.3125 µM [4]: 90.2%
remaining activity at 0.375 µM [5]: 85.8%
remaining activity at 0.625 µM [6]: 85.3%
remaining activity at 0.75 µM (read-out: 2-DG uptake (percent uptake relative to vehicle), AVE, PfHT, 0.75 µM compound): 76.1%
remaining activity at 1.25 µM [7]: 80.1%
remaining activity at 2.5 µM [8]: 68.2%
remaining activity at 5 µM [9]: 53.2%
remaining activity at 10 µM [10]: 42.3%
remaining activity at 20 µM [11]: 30.2%
remaining activity at 40 µM [12]: 18.7%
remaining activity at 80 µM (read-out: 2-DG uptake (percent uptake relative to vehicle), AVE, PfHT, 80 µM compound): 9.91%
remaining activity at 160 µM (read-out: 2-DG uptake (percent uptake relative to vehicle), AVE, PfHT, 160 µM compound): 5.69%
remaining activity at 225 µM (read-out: 2-DG uptake (percent uptake relative to vehicle), AVE, PfHT, 225 µM compound): 6.88%
inhibition at 5 µM: 50.2%
IC50 (IC50 (µM), PfHT, 2-DG Uptake, single experiments Expt 1-3): 4.6 µM and 6.6 µM and 6.34 µM
IC50 [13]: 5.8 µM and 5.85 µM
IC50 [14]: 4.6 µM and 6.6 µM and 6.34 µM
2-DG uptake (percent uptake relative to vehicle), AVE (PfHT, 0.001 µM compound): 100.00
2-DG Uptake AVE (PfHT, concentration 0.001 µM, Expt 1-3): 100.00
Selectivity Index, 2-DG, PfHT line itself (reference value): 1.0

COc1c(Br)cc([N+](=O)[O-])c(OC)c1C(=O)NC(=O)Nc1c(C)cccc1Cl [WU-2, 3-(3-bromo-2,6-dimethoxy-5-nitrobenzoyl)-1-(2-chloro-6-methylphenyl)urea]
Maximum Inhibition (%): 84.4%
remaining activity at 0.001 µM [1]: 97.7%
remaining activity at 0.09375 µM [2]: 96%
remaining activity at 0.1875 µM [3]: 93.9%
remaining activity at 0.3125 µM [4]: 85%
remaining activity at 0.375 µM [5]: 79.7%
remaining activity at 0.625 µM [6]: 75.7%
remaining activity at 1.25 µM [7]: 68.5%
remaining activity at 2.5 µM [8]: 62.4%
remaining activity at 5 µM [9]: 50.6%
remaining activity at 10 µM [10]: 39.9%
remaining activity at 20 µM [11]: 26.3%
remaining activity at 40 µM [12]: 17.3%
inhibition at 5 µM: 47.9%
IC50 [13]: 4.2 µM and 4.15 µM
IC50 [14]: 3.01 µM and 3.83 µM and 5.61 µM
